According to US11807852B2, “Compositions and methods for reactivating latent immunodeficiency virus” (The J. David Gladstone Institutes, a testamentary trust …, priority 2014, dated 2023):
Like-named read-outs stand apart in the source and are kept apart here.

Test system: J-Lat A72 cell line (LTR-GFP)
Details: A72 J-Lat cells; for activation of GFP expression / reactivation of the HIV-LTR: single agent
Protocol: J-Lat (clones A2 and A72) cell lines were cultured as described in Jordan et al., EMBO J. 2003 Apr. 15:22(8):1868-77. Human αCD3/αCD28 beads (Life Technologies) were used at a concentration of 1 bead/cell ratio. JQ1 (Sigma-Aldrich) was used at a concentration of 0.1-10 μM. Ingenol 3,20-dibenzoate (Sigma-Aldrich) was used at concentrations of 5-200 nM, and SAHA (Sigma-Aldrich) was used at concentrations of 110 nM, 330 nM, or 1 μM.
HEK293T cells were obtained from the American Type Culture Collection. J-Lat (clones A2, A72, and 5A8) cell lines were described (Chan et al., 2013; Jordan et al., 2003). HEK293T cells were cultured in DMEM supplemented with 10% FBS, 1% L-glutamine and 1% penicillin-streptomycin (Life Technologies). J-Lat cells were cultured in RPMI supplemented with 10% FBS, 1% L-glutamine and 1% penicillin-streptomycin (Life Technologies). […] TNFα (Sigma-Aldrich) was used at 0.5-10 ng/ml. Human αCD3/αCD28 Dynabeads (Invitrogen) were used at a 1 bead/cell ratio. JQ1 (Cayman Chemical) was used at 0.1-10 μM. Ingenol 3,20-dibenzoate (Santa Cruz Biotechnology) was used at 5-200 nM, and SAHA (Merck) was used at 110 nM, 330 nM, or 1 μM. Phorbol 12-myristate 13-acetate (PMA) (Sigma) was used at 10 nM and ionomycin (Sigma) was used at a concentration of 500 nM. UNC926 (Tocris Bioscience) was used at a concentration of 10 nM-100 μM. AZ505. AZ506, and AZ391 were used at a concentration of 10 nM-10 μM.
ShRNA-expressing lentiviral vectors were purchased from Sigma-Aldrich. The pLKO.1 vector containing a scrambled shRNA was used as control. […] J-Lat 5A8, A72 and A2 cells were spininfected with virus (1 ng of p24 per 10^6 cells) containing shRNAs against KMTs or nontargeting control shRNAs and were selected with puronycin (2 μg/ml: Sigma). After 7 days of selection, cells were treated with the indicated concentration of drugs. The percentage of GFP^+ cells was determined after 18 h using a MACSQuant VYB FACS analyzer (Miltenyi Biotech GmbH). Cell viability was monitored by forward-and-side scatter analysis. Analysis was conducted on 3×10,000 live cells per condition. Data were analyzed using FlowJo 9.5 (Tree Star).

N#Cc1cc(C(=O)NCCCN2CCCC2)cc(-c2ccccc2N2CCN(CCc3c[nH]c4ccccc34)CC2)c1 [AZ391]
reactivation of HIV-LTR, combination effect (co-treatment with JQ1): more than additive effects
reactivation of HIV-LTR, combination effect (co-treatment with SAHA): less
reactivation of HIV-LTR, combination effect (co-treatment with ingenol 3,20-dibenzoate): practically no combination effect
GFP+ cells (high concentrations (5 and 10 μM)): up to 30%
activation of GFP expression / reactivation of the HIV-LTR: activated GFP expression at high concentrations
activation of GFP expression / reactivation of the HIV-LTR (listed as X2): the same effect was observed in A72 cells
